Reference: patent publication US20240124456A1, “AZA-ERGOLINE DERIVATIVE AND PREPARATION METHOD THEREFOR AND APPLICATION THEREOF” (SHANGHAITECH UNIVERSITY, priority 2021, published 2024)
pEC50, pKi: −log10 of the molar value.

Experiments:
dopamine D2 receptors [1] = biological target: T1, dopamine D2 receptors (Homo sapiens (Human), UniProt P14416); assay: Radioligand competition binding, affinity for dopamine D2 receptors ([3H]-Methylspiperone); conditions: [3H]-Methylspiperone (0.3-0.5 nM), HEK-293T membranes; for pKi: I-1 to 19 n=3, I-20 to 27 single determination; for Affinity pKi ± SEM: n=3
T1 sequence (P14416 whole entry): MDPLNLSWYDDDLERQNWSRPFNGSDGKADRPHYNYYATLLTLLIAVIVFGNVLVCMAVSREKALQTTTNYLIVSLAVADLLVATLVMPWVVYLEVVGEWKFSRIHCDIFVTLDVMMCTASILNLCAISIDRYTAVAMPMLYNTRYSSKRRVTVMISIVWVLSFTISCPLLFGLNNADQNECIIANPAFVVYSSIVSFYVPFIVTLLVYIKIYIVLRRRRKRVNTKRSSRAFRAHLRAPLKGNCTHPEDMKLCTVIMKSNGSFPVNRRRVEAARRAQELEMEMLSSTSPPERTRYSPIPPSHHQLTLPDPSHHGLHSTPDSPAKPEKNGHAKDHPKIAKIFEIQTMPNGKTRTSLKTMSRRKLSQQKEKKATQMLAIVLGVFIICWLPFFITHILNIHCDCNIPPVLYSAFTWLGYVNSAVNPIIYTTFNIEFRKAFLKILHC

dopamine D2 receptors [2] = biological target: T1, dopamine D2 receptors; assay: G protein Gαi1-γ9 dissociation BRET, dopamine D2 receptor functional activity; assay type: cell-based; conditions: for pEC50: HEK-293T, I-1 to 19 n=3, I-20 to 27 single determination, read-out: Gai1 BRET EC50; for Emax: relative to the endogenous ligand dopamine, read-out: Gai1 BRET Emax % ± SEM
C57B6 male mice = assay: Freezing behavior test; assay type: in vivo; conditions: 10 mg/kg
Procedure: Experimental method: The experimental animals were C57B6 male mice, n=8 in each group. Mice were first injected with different compounds, and after a certain period of time (30 min or 60 min), the mice were in an upright and unnatural state by placing their forelimbs on a high glass hanging rod (about 5 cm from the ground). Then the time for the mice to maintain this state was measured, and the length of time was used to determine the freezing effect of the drug on the mice.

SMILES | pKi (dopamine D2 receptors [1]) | Affinity pKi ± SEM (dopamine D2 receptors [1]) | pEC50 (dopamine D2 receptors [2]) | Emax (dopamine D2 receptors [2]) [%] | freezing induction effect on mice (in words) (C57B6 male mice) | Freezing time (C57B6 male mice; 30 minutes after administration) [s] | Freezing time (C57B6 male mice; 60 minutes after administration) [s]
CN(C)C(=O)N[C@H]1CC[C@H](CCN2CCN3c4cccc5[nH]cc(c45)C[C@H]3C2)CC1 [(−)-I-10] | 7.65 | (7.65 ± 0.08) | 8.86 | 78 | no freezing induction effect | 2.194 ± 0.2524 | 2.165 ± 0.3256
O=c1ccc2ccc(OCCCCN3CCN4c5cccc6[nH]cc(c56)CC4C3)cc2[nH]1 (racemic) [Compound I-2, 7-(4(4,6,6a,7,9,10-hexahydro-8H-pyrazino[1,2-a]pyrrolo[4,3,2-de]quinolin-8-yl)butoxy)quinolin-2(1H)-one] | 8.04 | – | 7.83 | 101 | – | – | –
CN(C)C(=O)N[C@H]1CC[C@H](CCN2CCN3c4cccc5[nH]cc(c45)C[C@@H]3C2)CC1 [(+)-I-10] | 5.95 | (5.95 ± 0.17) | 8.02 | 86 | – | – | –
O=C1CCc2ccc(OCCCCN3CCN4c5cccc6[nH]cc(c56)CC4C3)cc2N1 (stereo not drawn) [Compound I-1, 7-(4(4,6,6a,7,9,10-hexahydro-8H-pyrazino[1,2-a]pyrrolo[4,3,2-de]quinolin-8-yl)butoxy)-3,4-dihydroquinolin-2(1H)-one] | 7.47 | (7.47 ± 0.16) | 7.79 | 100 | – | – | –
